Measurements from publication PMC8019741, “Efficacy Prediction of Four Pharmaceutical Formulations for Intramammary Administration Containing Aloe vera (L.) Burm. f. Combined With Ceftiofur or Cloxacillin in Lactating Cows as an Alternative Therapy to Treat Mastitis Caused by Staphylococcus aureus” (Frontiers in Veterinary Science, 2021).

Test system: Staphylococcus aureus ATCC 29213
Test: Macrodilution MIC test (CLSI)
Type: cell-based
Conditions: for MIC of the antimicrobial not combined: alone
Experimental: A macrodilution test was performed to determine the MIC for the different combinations, following the recommendations from the CLSI ([47]).
Aloe vera gel extract (1,200 mg/ml) was diluted in Muller-Hinton II (Cation Adjusted) Broth (MHBCA) from BD® (Franklin Lakes, NJ, USA) up to a range of concentrations from 150 to 1,200 mg/ml. In addition, the standard solutions of cloxacillin and ceftiofur were diluted in MHBCA to prepare 2-fold serial dilutions at a concentrations range of 0.015–128 μg/ml.
Staphylococcus aureus ATCC 29213 (KWIK-STIK) was sourced from Microbiologics® (St. Cloud, MN, USA) and used to test the MIC for the different combinations of Aloe vera and cloxacillin or ceftiofur. First, S. aureus was rehydrated with Trypticase™ Soy Broth from BD® (Franklin Lakes, NJ, USA). Then, these bacteria were cultured in the Trypticase™ Soy Broth from BD® (Franklin Lakes, NJ, USA) with 5% sheep defibrinated blood (Franklin Lakes, NJ, USA) at an incubation temperature of 36 ± 1°C for 24 h. Once incubation ended, bacteria were preserved at −80°C using cryobank vials, while waiting for further processing. […] These cultured bacteria were then suspended in MHBCA from BD® (Franklin Lakes, NJ, USA), and the optical density was adjusted according to the McFarland Standard Solution to standardize the number of bacteria. From this broth, dilutions containing 5 × 10^5 UFC/ml were incubated along with dilutions of a combination of Aloe vera extract and antimicrobials. […] Additionally, S. aureus bacteria were incubated separately, in different tubes, with the extract, cloxacillin, and ceftiofur dilutions.

Compound | MIC of the antimicrobial not combined [µg/mL] | MIC (Staphylococcus aureus, ATCC29213, calculated from the MIC of Aloe vera in the combination and the concentration of aloin A + aloin B in the extract) [µg/mL]
Cc1onc(-c2ccccc2Cl)c1C(=O)N[C@@H]1C(=O)N2[C@@H]1SC(C)(C)[C@@H]2C(=O)O [cloxacillin] | 0.25 | –
O=C1c2c(O)cccc2C([C@@H]2O[C@H](CO)[C@@H](O)[C@H](O)[C@H]2O)c2cc(CO)cc(O)c21 (stereo partly drawn) [aloin] | – | 0.00366
CO/N=C(\C(=O)N[C@@H]1C(=O)N2C(C(=O)O)=C(CSC(=O)c3ccco3)CS[C@H]12)c1csc(N)n1 [ceftiofur] | 0.25 | –
